Like-named read-outs stand apart in the source and are kept apart here.
Experiments:
MDA-MB-436 cells = test: Growth inhibition assay against BRCA mutant human breast cancer MDA-MB-436 cell line (CCK-8); type: cell-based; settings: Homo sapiens, MDA-MB-436, […], proliferation of MDA-MB-436 cells, 7 days
[1] = target: recombinant poly(ADP-ribose) polymerase 2 (PARP2) (Homo sapiens, UniProt Q9UGN5); test: PARP2 chemiluminescent assay; type: biochemical; settings: inhibition of PARP2 enzyme activity, chemiluminescence
[2] = target: T1, recombinant poly(ADP-ribose) polymerase 1 (PARP1) (Homo sapiens (Human), UniProt P09874)
[3] = target: T1, recombinant poly(ADP-ribose) polymerase 1 (PARP1); test: biochemical
PDE3A = PDE3A (Homo sapiens (Human), UniProt Q14432); test: PDE3A fluorescence polarization (FP) assay; type: biochemical; settings: PDE3A enzyme activity, FAM-cAMP substrate
[4] = target: recombinant poly(ADP-ribose) polymerase 2 (PARP2); test: PARP2 chemiluminescent assay; type: biochemical; settings: inhibition of PARP2 enzyme activity, chemiluminescence

Sequence of recombinant poly(ADP-ribose) polymerase 2 (PARP2) (Homo sapiens, UniProt Q9UGN5) (Q9UGN5 whole entry, looked up): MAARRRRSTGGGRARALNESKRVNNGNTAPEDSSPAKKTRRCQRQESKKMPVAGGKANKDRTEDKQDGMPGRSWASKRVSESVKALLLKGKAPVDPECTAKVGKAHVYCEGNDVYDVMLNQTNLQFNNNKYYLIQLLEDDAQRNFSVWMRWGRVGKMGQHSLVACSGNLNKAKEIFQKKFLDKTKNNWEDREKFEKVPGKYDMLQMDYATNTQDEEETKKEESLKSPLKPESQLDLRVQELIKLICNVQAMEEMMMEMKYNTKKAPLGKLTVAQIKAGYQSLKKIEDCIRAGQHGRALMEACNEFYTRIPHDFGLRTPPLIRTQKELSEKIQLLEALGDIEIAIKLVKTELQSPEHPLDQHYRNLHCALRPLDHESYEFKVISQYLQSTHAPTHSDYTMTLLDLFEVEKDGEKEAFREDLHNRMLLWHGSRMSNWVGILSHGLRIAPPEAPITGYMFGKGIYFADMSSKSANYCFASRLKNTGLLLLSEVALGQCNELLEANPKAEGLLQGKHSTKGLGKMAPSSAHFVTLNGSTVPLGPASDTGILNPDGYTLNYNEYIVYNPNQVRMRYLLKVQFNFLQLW
T1 sequence (P09874 whole entry): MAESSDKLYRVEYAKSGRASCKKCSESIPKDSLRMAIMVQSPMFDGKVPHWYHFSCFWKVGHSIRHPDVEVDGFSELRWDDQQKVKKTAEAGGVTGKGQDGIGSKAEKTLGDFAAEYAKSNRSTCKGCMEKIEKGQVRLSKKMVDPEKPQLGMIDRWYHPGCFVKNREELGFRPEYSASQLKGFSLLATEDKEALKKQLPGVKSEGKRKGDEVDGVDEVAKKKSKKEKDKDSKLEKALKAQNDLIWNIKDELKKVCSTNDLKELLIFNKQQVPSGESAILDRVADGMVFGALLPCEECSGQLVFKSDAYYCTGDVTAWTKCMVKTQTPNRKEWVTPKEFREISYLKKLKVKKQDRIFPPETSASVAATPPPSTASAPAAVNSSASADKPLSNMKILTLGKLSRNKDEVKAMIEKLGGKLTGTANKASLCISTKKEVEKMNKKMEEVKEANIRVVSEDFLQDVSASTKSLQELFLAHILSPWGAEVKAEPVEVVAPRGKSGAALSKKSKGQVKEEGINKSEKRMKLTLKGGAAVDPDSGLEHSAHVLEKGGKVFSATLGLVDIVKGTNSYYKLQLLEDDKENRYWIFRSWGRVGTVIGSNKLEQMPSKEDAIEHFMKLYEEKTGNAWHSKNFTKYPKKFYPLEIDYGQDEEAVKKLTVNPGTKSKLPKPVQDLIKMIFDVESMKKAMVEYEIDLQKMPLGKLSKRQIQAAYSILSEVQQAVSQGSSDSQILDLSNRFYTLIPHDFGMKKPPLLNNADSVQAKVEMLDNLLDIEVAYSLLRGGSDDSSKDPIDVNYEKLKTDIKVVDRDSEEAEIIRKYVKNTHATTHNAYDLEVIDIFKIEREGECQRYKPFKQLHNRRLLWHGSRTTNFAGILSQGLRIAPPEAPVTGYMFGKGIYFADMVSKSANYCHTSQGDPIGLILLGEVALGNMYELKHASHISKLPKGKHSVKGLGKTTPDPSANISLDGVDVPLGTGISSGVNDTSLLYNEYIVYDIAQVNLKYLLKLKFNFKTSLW
Sequence of PDE3A (Q14432 whole entry): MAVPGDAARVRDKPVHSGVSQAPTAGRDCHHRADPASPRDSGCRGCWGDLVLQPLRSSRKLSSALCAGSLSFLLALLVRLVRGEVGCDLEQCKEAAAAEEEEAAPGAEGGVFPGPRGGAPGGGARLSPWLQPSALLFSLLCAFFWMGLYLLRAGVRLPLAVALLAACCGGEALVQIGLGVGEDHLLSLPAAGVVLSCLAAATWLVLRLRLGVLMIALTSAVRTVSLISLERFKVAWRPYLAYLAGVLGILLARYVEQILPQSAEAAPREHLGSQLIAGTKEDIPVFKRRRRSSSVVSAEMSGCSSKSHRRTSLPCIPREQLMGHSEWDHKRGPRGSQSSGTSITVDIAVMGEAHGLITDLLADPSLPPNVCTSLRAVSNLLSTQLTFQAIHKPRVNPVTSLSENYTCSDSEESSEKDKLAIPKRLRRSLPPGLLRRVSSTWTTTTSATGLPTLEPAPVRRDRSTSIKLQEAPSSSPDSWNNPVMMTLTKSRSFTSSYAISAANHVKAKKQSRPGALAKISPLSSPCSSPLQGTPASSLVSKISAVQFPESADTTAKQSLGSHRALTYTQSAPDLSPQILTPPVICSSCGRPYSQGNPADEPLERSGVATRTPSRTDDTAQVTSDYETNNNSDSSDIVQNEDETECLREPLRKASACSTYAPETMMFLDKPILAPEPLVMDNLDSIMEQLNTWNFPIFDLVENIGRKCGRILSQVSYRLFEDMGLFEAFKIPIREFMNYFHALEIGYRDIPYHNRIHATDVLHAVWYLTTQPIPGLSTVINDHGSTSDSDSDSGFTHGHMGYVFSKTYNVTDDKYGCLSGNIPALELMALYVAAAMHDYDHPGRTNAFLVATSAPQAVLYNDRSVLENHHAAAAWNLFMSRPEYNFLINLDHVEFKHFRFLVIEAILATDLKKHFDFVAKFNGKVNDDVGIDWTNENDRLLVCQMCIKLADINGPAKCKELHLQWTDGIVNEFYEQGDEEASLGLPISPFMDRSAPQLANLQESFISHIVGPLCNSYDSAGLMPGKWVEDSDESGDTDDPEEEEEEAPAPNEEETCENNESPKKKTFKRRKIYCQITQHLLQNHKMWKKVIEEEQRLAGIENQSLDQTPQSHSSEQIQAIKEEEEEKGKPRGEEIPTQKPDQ

IC50 (MDA-MB-436 cells) [nM]	IC50 [1] [nM]	IC50 [2] [nM]	IC50 [3] [nM]	IC50 (PDE3A) [nM]	IC50 [4] [nM]	SMILES
3.73	16.9	–	–	–	–	CNC(=O)c1ccc(N2CCN(Cc3cc(F)c4c(c3)[nH]c(=O)c3sccc34)CC2)c(C)n1 [Example 38, 9-fluoro-7-((4-(2-methyl-6-(methylcarbamoyl)pyridin-3-yl)piperazin-1-yl)methyl)thieno[2,3-c]quinolin-4(5H)-one]
5.09	5370	–	0.83	–	–	CNC(=O)c1ccc(C2CCN(Cc3ccc4c([nH]c(=O)c5occc54)c3F)CC2)c(F)n1 [Example 109, 7-((4-(2-fluoro-6-(methylcarbamoyl)pyridin-3-yl)piperidin-1-yl)methyl)-6-fluorofuro[2,3-c]quinolin-4(5H)-one]
1.72	–	1.06	–	10500	2820	CNC(=O)c1ccc(N2CCN(Cc3ccc4c([nH]c(=O)c5c(F)cnn54)c3F)CC2)c(C)n1 [Example 121, 7-((4-(2-methyl-6-(methylcarbamoyl)pyridin-3-yl)piperazin-1-yl)methyl)-3,6-difluoropyrazolo[1,5-a]quinoxalin-4(5H)-one]
2	2400	–	0.56	10900	–	O=C(NCC(F)F)c1ccc(N2CCN(Cc3ccc4c([nH]c(=O)c5occc54)c3F)CC2)c(F)n1 [Example 147, 6-fluoro-7-((4-(2-fluoro-6-(2,2-difluoroethylcarbamoyl)pyridin-3-yl)piperazin-1-yl)methyl)furo[2,3-c]quinolin-4(5H)-one]
8.02	–	0.61	–	> 30000	145	CNC(=O)c1ccc(N2CCN(Cc3cc4[nH]c(=O)c5c(C)cnn5c4cc3F)CC2)c(F)n1 [Example 168, 8-fluoro-7-((4-(2-fluoro-6-(methylcarbamoyl)pyridin-3-yl)piperazin-1-yl)methyl)-3-methylpyrazolo[1,5-a]quinoxalin-4(5H)-one]
3.4	–	1.72	–	16600	5000	CCNC(=O)c1ccc(N2CCN(Cc3ccc4c([nH]c(=O)c5occc54)c3F)CC2)c(F)n1 [Example 66, 7-((4-(2-fluoro-6-(ethylcarbamoyl)pyridin-3-yl)piperazin-1-yl)methyl)-6-fluorofuro[2,3-c]quinolin-4(5H)-one]
–	54.9	–	–	–	–	CNC(=O)c1ccc(N2CCN(Cc3ccc4c(c3)[nH]c(=O)c3cnn(C)c34)CC2)c(C)n1 [Example 8, 7-((4-(2-methyl-6-(methylcarbamoyl)pyridin-3-yl)piperazin-1-yl)methyl)-1-methyl-1,5-dihydro-4H-pyrazolo[4,3-c]quinolin-4-one]
0.58	–	0.26	–	1300	158	CNC(=O)c1ccc(N2CCN(Cc3ccc4c(c3)[nH]c(=O)c3occc34)CC2)c(F)n1 [Example 112, 7-((4-(2-fluoro-6-(methylcarbamoyl)pyridin-3-yl)piperazin-1-yl)methyl)furo[2,3-c]quinolin-4(5H)-one]
3.85	–	0.41	–	16500	898	CNC(=O)c1ccc(N2CCN(Cc3ccc4c([nH]c(=O)c5ccoc54)c3F)CC2)c(F)n1 [Example 44, 7-((4-(2-fluoro-6-(methylcarbamoyl)pyridin-3-yl)piperazin-1-yl)methyl)-6-fluoro-furo[3,2-c]quinolin-4(5H)-one]
24.6	–	1.29	–	> 25000	1890	CNC(=O)c1ccc(N2CCN(Cc3ccc4c([nH]c(=O)n5c(C)cnc45)c3F)CC2)c(F)n1 [Example 141, 8-((4-(2-fluoro-6-(methylcarbamoyl)pyridin-3-yl)piperazin-1-yl)methyl)-3-methyl-7-fluoroimidazo[1,2-c]quinazolin-5(6H)-one]
–	18.3	–	–	–	–	CNC(=O)c1ccc(N2CCN(Cc3ccc4c(c3)[nH]c(=O)c3cscc34)CC2)c(C)n1 [Example 3, 7-((4-(2-methyl-6-(methylcarbamoyl)pyridin-3-yl)piperazin-1-yl)methyl)thieno[3,4-c]quinolin-4(5H)-one]
3.48	–	0.44	–	> 30000	199	CNC(=O)c1ccc(N2CCN(Cc3ccc4c([nH]c(=O)c5cnn(C)c54)c3F)CC2)c(F)n1 [Example 92, 6-fluoro-7-((4-(2-fluoro-6-(methylcarbamoyl)pyridin-3-yl)piperazin-1-yl)methyl)-1-methyl-1,5-dihydro-4H-pyrazolo[4,3-c]quinolin-4-one]
1.4	–	0.32	–	> 30000	93.5	CNC(=O)c1ccc(N2CCN(Cc3cc4[nH]c(=O)c5c(F)cnn5c4cc3F)CC2)c(F)n1 [Example 182, 7-((4-(2-fluoro-6-(methylcarbamoyl)pyridin-3-yl)piperazin-1-yl)methyl)-3,8-difluoropyrazolo[1,5-a]quinoxalin-4(5H)-one]
–	10.1	–	–	–	–	CNC(=O)c1ccc(N2CCN(Cc3ccc4c(c3)[nH]c(=O)c3sccc34)CC2)c(C)n1 [Example 5, 7-((4-(2-methyl-6-(methylcarbamoyl)pyridin-3-yl)piperazin-1-yl)methyl)thieno[2,3-c]quinolin-4(5H)-one]
1.58	–	0.48	–	> 30000	2500	CNC(=O)c1ccc(N2CCN(Cc3ccc4c([nH]c(=O)c5c(C)cnn54)c3F)CC2)c(C#N)n1 [Example 128, 7-((4-(2-cyano-6-(methylcarbamoyl)pyridin-3-yl)piperazin-1-yl)methyl)-6-fluoro-3-methylpyrazolo[1,5-a]quinoxalin-4(5H)-one]
–	78	–	–	–	–	CNC(=O)c1ccc(N2CCN(Cc3ccc4c(c3)[nH]c(=O)c3ccsc34)CC2)c(C)n1 [Example 1, 7-((4-(2-methyl-6-(methylcarbamoyl)pyridin-3-yl)piperazin-1-yl)methyl)thieno[3,2-c]quinolin-4(5H)-one]
4.58	–	1.76	–	> 30000	1980	CNC(=O)c1ccc(N2CCN(Cc3ccc4c([nH]c(=O)n5cccc45)c3F)CC2)c(C)n1 [Example 48, 8-((4-(2-methyl-6-(methylcarbamoyl)pyridin-3-yl)piperazin-1-yl)methyl)-7-fluoropyrrolo[1,2-c]quinazolin-5(6H)-one]
–	13.3	–	–	–	–	CNC(=O)c1ccc(N2CCN(Cc3cc(F)c4c(c3)[nH]c(=O)c3cscc34)CC2)c(C)n1 [Example 21, 7-((4-(2-methyl-6-(methylcarbamoyl)pyridin-3-yl)piperazin-1-yl)methyl)-9-fluorothieno[3,4-c]quinolin-4(5H)-one]
2.99	–	1.38	–	> 30000	> 10000	CNC(=O)c1ccc(N2CCN(Cc3ccc4c([nH]c(=O)c5c(C)cnn54)c3F)CC2)c(F)n1 [Example 58, 7-((4-(2-fluoro-6-(methylcarbamoyl)pyridin-3-yl)piperazin-1-yl)methyl)-6-fluoro-3-methylpyrazolo[1,5-a]quinoxalin-4(5H)-one]
1.58	–	0.32	–	630	93.5	CNC(=O)c1ccc(N2CCN(Cc3cc(F)c4c(c3)[nH]c(=O)c3c(F)cnn34)CC2)c(F)n1 [Example 177, 3,9-difluoro-7-((4-(2-fluoro-6-(methylcarbamoyl)pyridin-3-yl)piperazin-1-yl)methyl)pyrazolo[1,5-a]quinoxalin-4(5H)-one]
3.41	–	0.47	–	13800	340	CNC(=O)c1ccc(N2CCN(Cc3ccc4c([nH]c(=O)c5cocc54)c3F)CC2)c(F)n1 [Example 115, 7-((4-(2-fluoro-6-(methylcarbamoyl)pyridin-3-yl)piperazin-1-yl)methyl)-6-fluorofuro[3,4-c]quinolin-4(5H)-one]

SMILES	IC50 (MDA-MB-436 cells) [nM]	IC50 [1] [nM]	IC50 [2] [nM]	IC50 [3] [nM]	IC50 (PDE3A) [nM]	IC50 [4] [nM]
CNC(=O)c1ccc(C2=CCN(Cc3ccc4c([nH]c(=O)c5c(C)cnn54)c3F)CC2)c(F)n1 [Example 165, 6-fluoro-7-((2-fluoro-6-methylcarbamoyl-3′,6′-dihydro-[3,4′-bipyridin]-1′(2′H)-yl)methyl)-3-methylpyrazolo[1,5-a]quinoxalin-4(5H)-one]	2.75	> 3330	0.26	–	–	–
CNC(=O)c1ccc(C2=CCN(Cc3ccc4c([nH]c(=O)c5c(F)cnn54)c3F)CC2)c(F)n1 [Example 197, 7-((2-fluoro-6-methylcarbamoyl-3′,6′-dihydro-[3,4′-bipyridin]-1′(2′H)-yl)methyl)-3,6-difluoropyrazolo[1,5-a]quinoxalin-4(5H)-one]	1.19	774	0.15	–	–	–
CNC(=O)c1ccc(C2=CCN(Cc3ccc4c([nH]c(=O)c5c(C)cnn54)c3F)CC2)cn1 [Example 152, 6-fluoro-3-methyl-7-((6-methylcarbamoyl-3′,6′-dihydro-[3,4′-bipyridin]-1′(2′H)-yl)methyl)pyrazolo[1,5-a]quinoxalin-4(5H)-one]	19.3	> 1110	–	–	> 25000	–

Source: patent US20250215013A1, “SUBSTITUTED TRICYCLIC COMPOUNDS AS PARP INHIBITORS AND THE USE THEREOF” (IMPACT THERAPEUTICS (SHANGHAI), INC., priority 2022, published 2025)
